# Reference: patent US10023587B2, “Oxabicycloheptanes and oxabicycloheptenes, their preparation and use” (LIXTE BIOTECHNOLOGY, INC., priority 2007, dated 2018)
# Columns and labels:
# [1] = system: 23 clinical fungal isolates; test: Antifungal susceptibility testing, whole panel of 23 isolates; type: cell-based; settings: at the levels tested, 0.125-64 μg/ml
# Procedure: Anti-fungal testing was completed with a common lot for compounds 100 and 102.
# A 10 mg portion of each powder was weighed out and added to 1 ml of sterile distilled water for compound 100 and DMSO for compound 102. The resulting concentration of […] was diluted to a working concentration of 640 μg/ml for each compound. All subsequent dilutions were also made using the respective diluents. Final testing concentrations ranged from 0.125-64 μg/ml.
# A total of 23 isolates were tested to include 3 Candida albicans, 3 Candida glabrata, 3 Cryptococcus neoformans, 3 Aspergillus fumigatus, 3 Rhizopus oryzae, 3, Fusarium solani, 3 Pseudallescheria boydii, and 2 […] rubrum. All isolates were clinical isolates submitted to the Fungus Testing Laboratory for evaluation. Antifungal susceptibility testing was accomplished according to the methods outlined in the National Committee for Clinical Laboratory Standards, M-27A2, Reference Method for Broth Dilution Antifungal Susceptibility Testing of Yeasts; Approved Standard, and M38-A “Reference Method for Broth Dilution Antifungal Susceptibility Testing of Conidium-Forming Filamentous Fungi; Approved Standard”. This includes testing in RPMI-1640 with glutamine and without bicarbonate, an inoculum size of 0.5-2.5×10^3 for yeasts or 1-5×10^4 for moulds, and incubation at 35° C. for 24 and 48 hours.
# GBM cell line U87 = test: U87 xenograft tumor growth in SCID mice; type: in vivo; settings: subcutaneous in SCID mice, ip daily for 20 days (FIG. 17)
# Procedure: For in vivo experiments, subcutaneously implanted tumor cells are allowed to grow over 7 days to a size of 5-7 mm. On day 7, drug administration is begun ip daily for 20 days. The maximum perpendicular diameters of the tumor masses are measured every 2 to 5 days. On the 21st day after initiation of treatment, the animals are sacrificed and dissected free of the subcutaneous tissues and measured.
smiles,measurement,setting,value
"CN1CCN(C(=O)C2C(C(=O)O)[C@H]3CC[C@@H]2O3)CC1 (some centres unmarked) [Compound 100, Endothall 4-Methylpiperazine Monoamide]","Antifungal activity, all isolates (in words)",[1],no activity
same,Effect on U87 xenograft tumor growth (in words),GBM cell line U87,supresses the growth
